Results from US8575186B2, “Epiminocycloalkyl[b] indole derivatives as serotonin sub-type 6 (5-HT6) modulators and uses thereof” (Albany Molecular Research, Inc., priority 2009, dated 2013).
Counter-ions that a name gives are not always drawn.

The molecules below were run against human 5-HT6 receptor (Homo sapiens (Human), UniProt P50406) (assay: radioligand binding assay (SPA format), [N-methyl-3H]-LSD). Conditions: read-out: human 5HT6 Ki; human 5-HT6 receptor membranes, 10 nM [3H]-LSD.
Chain of human 5-HT6 receptor (P50406 whole entry): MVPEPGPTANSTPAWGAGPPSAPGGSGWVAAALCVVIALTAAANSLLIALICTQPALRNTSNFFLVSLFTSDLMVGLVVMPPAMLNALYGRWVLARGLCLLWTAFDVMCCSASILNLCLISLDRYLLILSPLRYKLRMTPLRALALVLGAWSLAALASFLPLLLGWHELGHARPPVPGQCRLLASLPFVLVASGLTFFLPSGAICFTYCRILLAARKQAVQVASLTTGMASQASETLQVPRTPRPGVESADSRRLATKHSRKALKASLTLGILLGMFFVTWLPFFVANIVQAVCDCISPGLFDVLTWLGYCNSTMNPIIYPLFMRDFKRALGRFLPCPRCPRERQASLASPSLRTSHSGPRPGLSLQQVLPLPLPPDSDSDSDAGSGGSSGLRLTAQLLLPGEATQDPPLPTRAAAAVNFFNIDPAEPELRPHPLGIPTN
Molecule Cn1c2c(c3cc(S(=O)(=O)c4ccc(CN)cc4)ccc31)C1CCC(C2)N1 (stereo not shown) [Example 33, 2-(4-Aminomethylphenyl)sulfonyl-5-methyl-5,6,7,8,9,10-hexahydro-7,10-epiminocyclohepta[b]indole dihydrochloride] has a Ki of 15 nM. For CN(C)Cc1ccc(S(=O)(=O)c2ccc3c(c2)c2c(n3C)CC3CCC2N3)cc1 (stereo not shown) [Example 34, 2-[4-(N,N-Dimethylaminomethyl)phenyl]sulfonyl-5-methyl-5,6,7,8,9,10-hexahydro-7,10-epiminocyclohepta[b]indole dihydrochloride], the Ki was 4.8 nM. Molecule Cn1c2c(c3cc(S(=O)(=O)n4ccc5c(F)cccc54)ccc31)C1CCC(C2)N1 (stereo not shown) [Example 64, 2-[1-(4-Fluoro)-indole]sulfonyl-5-methyl-5,6,7,8,9,10-hexahydro-7,10-epiminocyclohepta[b]indole hydrochloride] has a Ki of 5.6 nM. CN1C2CCC1c1c(n(C)c3ccc(S(=O)(=O)c4ccccc4)cc13)C2 (stereo not shown) [Example 69, 2-Phenylsulfonyl-5-methyl-5,6,7,8,9,10-hexahydro-7,10-N-methyl-epiminocyclohepta[b]indole hydrochloride] was tested, and the Ki was 7.8 nM. CCc1cc(S(=O)(=O)c2ccccc2)cc2c3c(n(C)c12)CC1CCC3N1 (stereo not shown) [Example 80, 2-Phenylsulfonyl-4-ethyl-5-methyl-5,6,7,8,9,10-hexahydro-7,10-epiminocyclohepta[b]indole hydrochloride] gave a Ki of 17 nM. Cn1c2c(c3cc(S(=O)(=O)c4ccccc4)ccc31)C1CCCC(C2)N1 (stereo not shown) [Example 92, 2-(Phenylsulfonyl)-5-methyl-6,7,8,9,10,11-hexahydro-5H-7,11-epiminocycloocta[b]indole hydrochloride] gave a Ki of 150 nM. With Cn1c2c(c3cc(S(=O)(=O)c4ccc5cc[nH]c5c4)ccc31)C1CCC(C2)N1 (stereo not shown) [Example 95] the Ki was 5.8 nM. Cn1c2c(c3cc(S(=O)(=O)c4cc(F)ccn4)ccc31)C1CCC(C2)N1 (stereo not shown) [Example 96] gave a Ki of 341 nM. Cn1c2c(c3cc(S(=O)(=O)c4cc(Cl)ccn4)ccc31)C1CCC(C2)N1 (stereo not shown) [Example 97] gave a Ki of 104 nM. Molecule Cn1c2c(c3cc(S(=O)(=O)c4cccc5cc[nH]c45)ccc31)C1CCC(C2)N1 (stereo not shown) [Example 99] has a Ki of 4.5 nM. Cn1c2c(c3cc(S(=O)(=O)c4cnc5[nH]ccc5c4)ccc31)C1CCC(C2)N1 (stereo not shown) [Example 101] showed a Ki of 2.9 nM. Cn1c2c(c3cc(S(=O)(=O)c4cn(Cc5ccccc5)c5ccccc45)ccc31)C1CCC(C2)N1 (stereo not shown) [Example 102] gave a Ki of 0.71 nM. Molecule Cn1c2c(c3cc(S(=O)(=O)c4cn(-c5ccccc5)c5ccccc45)ccc31)C1CCC(C2)N1 (stereo not shown) [Example 103] has a Ki of 9.3 nM. Cn1c2c(c3cc(S(=O)(=O)c4ccc5sccc5c4)ccc31)C1CCC(C2)N1 (stereo not shown) [Example 104] showed a Ki of 5 nM. Work on Cn1c2c(c3cc(S(=O)(=O)c4ccccc4O)ccc31)C1CCC(C2)N1 (stereo not shown) [Example 105] yielded a Ki of 100 nM. Work on Cn1c2c(c3cc(S(=O)(=O)n4ccc5ncccc54)ccc31)C1CCC(C2)N1 (stereo not shown) [Example 107] yielded a Ki of 78 nM. Work on Cn1c2c(c3cc(S(=O)(=O)c4cccc5ncccc45)ccc31)C1CCC(C2)N1 (stereo not shown) [Example 110] yielded a Ki of 148 nM. Molecule Cn1c2c(c3cc(S(=O)(=O)c4cccc5cnccc45)ccc31)C1CCC(C2)N1 (stereo not shown) [Example 111] has a Ki of 22 nM. Cn1c2c(c3cc(S(=O)(=O)c4ccccc4F)ccc31)C1CCC(C2)N1 (stereo not shown) [Example 112] gave a Ki of 4.6 nM. With Cn1c2c(c3cc(S(=O)(=O)c4cccc5cccnc45)ccc31)C1CCC(C2)N1 (stereo not shown) [Example 113] the Ki was 23 nM. In the case of Cn1c2c(c3cc(S(=O)(=O)c4ccccc4Cl)ccc31)C1CCC(C2)N1 (stereo not shown) [Example 115], the Ki is reported as 4.8 nM. Cn1c2c(c3cc(S(=O)(=O)c4ccc5occc5c4)ccc31)C1CCC(C2)N1 (stereo not shown) [Example 116] was tested, and the Ki was 20 nM. With CC(C)n1ccc2cc(S(=O)(=O)c3ccc4c(c3)c3c(n4C)CC4CCC3N4)ccc21 (stereo not shown) [Example 117] the Ki was 4.4 nM. Cn1c2c(c3cc(S(=O)(=O)c4ccc5c(ccn5CCO)c4)ccc31)C1CCC(C2)N1 (stereo not shown) [Example 119] showed a Ki of 228 nM. COCCn1ccc2cc(S(=O)(=O)c3ccc4c(c3)c3c(n4C)CC4CCC3N4)ccc21 (stereo not shown) [Example 120] gave a Ki of 64 nM. Cn1c2c(c3cc(S(=O)(=O)c4cccc(OCc5ccccc5)c4)ccc31)C1CCC(C2)N1 (stereo not shown) [Example 121] showed a Ki of 1.9 nM. Molecule Cn1c2c(c3cc(S(=O)(=O)c4cc(C(F)(F)F)c5[nH]ccc5c4)ccc31)C1CCC(C2)N1 (stereo not shown) [Example 123] has a Ki of 0.47 nM. In the case of Cn1c2c(c3cc(S(=O)(=O)c4cc(F)c5[nH]ccc5c4)ccc31)C1CCC(C2)N1 (stereo not shown) [Example 124], the Ki is reported as 0.33 nM. Cn1c2c(c3cc(S(=O)(=O)c4cccc(-c5cc[nH]n5)c4)ccc31)C1CCC(C2)N1 (stereo not shown) [Example 125] was tested, and the Ki was 244 nM. Cc1cc2ccccc2n1S(=O)(=O)c1ccc2c(c1)c1c(n2C)CC2CCC1N2 (stereo not shown) [Example 126] showed a Ki of 7.2 nM. Cn1c2c(c3cc(S(=O)(=O)n4ccc5ccc(C#N)cc54)ccc31)C1CCC(C2)N1 (stereo not shown) [Example 127] was tested, and the Ki was 1.5 nM. Cn1c2c(c3cc(S(=O)(=O)n4cc(F)c5ccccc54)ccc31)C1CCC(C2)N1 (stereo not shown) [Example 129] was tested, and the Ki was 2.7 nM. Work on Cn1c2c(c3cc(S(=O)(=O)c4cccc5ccncc45)ccc31)C1CCC(C2)N1 (stereo not shown) [Example 131] yielded a Ki of 13 nM. Cn1c2c(c3cc(S(=O)(=O)c4ccnc5ccccc45)ccc31)C1CCC(C2)N1 (stereo not shown) [Example 132] showed a Ki of 39 nM. Cn1c2c(c3cc(S(=O)(=O)c4cccc(OCc5ccncc5)c4)ccc31)C1CCC(C2)N1 (stereo not shown) [Example 133] gave a Ki of 11 nM. With CN1C2CCC1c1c(n(C)c3ccc(S(=O)(=O)c4ccc5[nH]ccc5c4)cc13)C2 (stereo not shown) [Example 134] the Ki was 0.26 nM. CC(C)N1C2CCC1c1c(n(C)c3ccc(S(=O)(=O)c4ccc5[nH]ccc5c4)cc13)C2 (stereo not shown) [Example 135] was tested, and the Ki was 3.2 nM. COCCN1C2CCC1c1c(n(C)c3ccc(S(=O)(=O)c4ccc5[nH]ccc5c4)cc13)C2 (stereo not shown) [Example 136] was tested, and the Ki was 1.4 nM. Work on Cn1c2c(c3cc(S(=O)(=O)c4ccc5[nH]ccc5c4)ccc31)C1CCC(C2)N1Cc1ccccc1 (stereo not shown) [Example 137] yielded a Ki of 1.2 nM. Work on Cn1c2c(c3cc(S(=O)(=O)c4ccc5[nH]ccc5c4)ccc31)C1CCC(C2)N1CCO (stereo not shown) [Example 138] yielded a Ki of 1.2 nM. Cn1c2c(c3cc(S(=O)(=O)c4csc5ccccc45)cc(F)c31)C1CCC(C2)N1 (stereo not shown) [Example 139] was tested, and the Ki was 0.47 nM. Cc1cc(S(=O)(=O)c2cn(C)c3ccccc23)cc2c3c(n(C)c12)CC1CCC3N1 (stereo not shown) [Example 140] was tested, and the Ki was 0.56 nM. Cc1cc(S(=O)(=O)c2csc3ccccc23)cc2c3c(n(C)c12)CC1CCC3N1 (stereo not shown) [Example 141] was tested, and the Ki was 0.29 nM. For Cn1c2c(c3cc(S(=O)(=O)c4ccccc4)cc(C#N)c31)C1CCC(C2)N1 (stereo not shown) [Example 142], the Ki was 115 nM. Molecule COc1cc(S(=O)(=O)c2ccc3[nH]ccc3c2)cc2c3c(n(C)c12)CC1CCC3N1 (stereo not shown) [Example 145] has a Ki of 0.31 nM. Molecule COc1cc(S(=O)(=O)c2cccc(OCc3ccccc3)c2)cc2c3c(n(C)c12)CC1CCC3N1 (stereo not shown) [Example 147] has a Ki of 1.4 nM. COc1cc(S(=O)(=O)n2ncc3ccccc32)cc2c3c(n(C)c12)CC1CCC3N1 (stereo not shown) [Example 148] showed a Ki of 1.3 nM. COc1cc(S(=O)(=O)n2cc(C#N)c3ccccc32)cc2c3c(n(C)c12)CC1CCC3N1 (stereo not shown) [Example 149] was tested, and the Ki was 1.2 nM.

Same assay, conditions: read-out: human 5HT6 Ki; human 5-HT6 receptor membranes, 10 nM [3H]-LSD; hydrochloride
Cn1c2c(c3cc(S(=O)(=O)c4cccc(Cl)c4)ccc31)C1CCC(C2)N1 (stereo not shown) [Example 36, 2-(3-Chlorophenyl)sulfonyl-5-methyl-5,6,7,8,9,10-hexahydro-7,10-epiminocyclohepta[b]indole hydrochloride] gave a Ki of 1.8 nM.
